Test systems include SK-MEL-28 melanoma; SNB-75 CNS; MDA-MB-231 breast; SF-268 CNS; K-562 leukemia; OVCAR-8 ovarian; SW-620 colon; NCI-H226 lung; OVCAR-4 ovarian; T-47D breast.
Test in all cases: NCI anticancer screen, dose series, 48 h

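Five concentrations, 48 hours, 96-well plates. GI50: concentration for 50% inhibition of growth. TGI: concentration producing complete growth inhibition.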

Turning to `COc1cc(OC)c(C(=O)/C=C/c2cccc(C#N)c2)c(OC)c1`, the GI50 in the test with SK-MEL-28 melanoma was 1580 nM; in the test on SNB-75 CNS, 1310 nM; with MDA-MB-231 breast, 2000 nM; in the test on SF-268 CNS, 1690 nM; in the test on K-562 leukemia, 384 nM; in the test on OVCAR-8 ovarian, 1.47 µM. The GI50 in the test on SW-620 colon is 1460 nM; with NCI-H226 lung, 1.28 µM; with OVCAR-4 ovarian, 2030 nM; in the test on T-47D breast, 1170 nM. In addition, the TGI is 6.24 µM in the test with SK-MEL-28 melanoma; 5.62 µM in the test with SNB-75 CNS; 8.08 µM in the test with MDA-MB-231 breast; 7.9 µM in the test with SF-268 CNS; above 50 µM in the test on K-562 leukemia; 6.51 µM in the test with OVCAR-8 ovarian. The TGI with SW-620 colon worked out at 5.15 µM; in the test with NCI-H226 lung, 4.56 µM; in the test with OVCAR-4 ovarian, 10 µM; in the test with T-47D breast, 5.53 µM.
For the compound `Cc1nn(C)c(COc2ccc(N3CCN(S(=O)(=O)N(C)C)CC3)cc2)c1-c1cccc2c(CCCOc3cccc4ccccc34)c(C(=O)O)n(CCN3CCOCC3)c12`, the GI50 is 2070 nM with SK-MEL-28 melanoma; 2110 nM in the test with SNB-75 CNS; 2260 nM with MDA-MB-231 breast; 3660 nM in the test with SF-268 CNS; 3840 nM with K-562 leukemia; 3.51 µM in the test on OVCAR-8 ovarian. For the same compound, the GI50 is 3590 nM with SW-620 colon, 3.19 µM with NCI-H226 lung, 3400 nM in the test on OVCAR-4 ovarian and 2400 nM with T-47D breast. For the same compound, the TGI is 4.87 µM with SK-MEL-28 melanoma; 10.5 µM in the test with SNB-75 CNS; 5.9 µM with MDA-MB-231 breast; 15.8 µM in the test on SF-268 CNS; above 100 µM in the test with K-562 leukemia; 14.7 µM in the test on OVCAR-8 ovarian. Besides, the TGI came out at 15 µM in the test with SW-620 colon, 15.9 µM in the test with NCI-H226 lung, 14.1 µM with OVCAR-4 ovarian and 9.38 µM in the test on T-47D breast.
Turning to `CC(=O)[O][Sn]([CH2]c1ccccc1)([CH2]c1ccccc1)[CH2]c1ccccc1`, the GI50 is above 5600 nM in the test on SK-MEL-28 melanoma; above 4280 nM in the test on SNB-75 CNS; above 9020 nM in the test with MDA-MB-231 breast; 3400 nM in the test with K-562 leukemia; above 10 µM in the test with OVCAR-8 ovarian; above 8820 nM in the test on SW-620 colon. The GI50 in the test on NCI-H226 lung is above 10 µM; with OVCAR-4 ovarian, above 4360 nM; in the test with T-47D breast, above 10000 nM. Further, the TGI in the test with SK-MEL-28 melanoma was above 6.79 µM; in the test with SNB-75 CNS, above 5.68 µM; in the test on MDA-MB-231 breast, above 10 µM; in the test with K-562 leukemia it was above 4.64 µM; in the test with OVCAR-8 ovarian, above 10 µM; with SW-620 colon, above 10 µM. Also, the figures for the TGI in the test with NCI-H226 lung, in the test on OVCAR-4 ovarian and with T-47D breast were above 10 µM, above 6.02 µM and above 10 µM, respectively.
Turning to `COc1ccc(C2=CC(c3ccc(OC)cc3Br)N3C=CSC3=N2)cc1` (centres undefined), the GI50 in the test on SK-MEL-28 melanoma was 8830 nM; in the test on SNB-75 CNS it was 15600 nM; in the test with MDA-MB-231 breast, 8320 nM; in the test on SF-268 CNS, 13700 nM; in the test on K-562 leukemia, 2470 nM; in the test with OVCAR-8 ovarian it was 4.09 µM. The GI50 is 2000 nM in the test on SW-620 colon, 14.7 µM in the test on NCI-H226 lung, 5040 nM in the test with OVCAR-4 ovarian and 9210 nM in the test with T-47D breast. The TGI with SK-MEL-28 melanoma was 22.3 µM; in the test on SNB-75 CNS it was 43.7 µM; with MDA-MB-231 breast it was 36.2 µM; with SF-268 CNS, 48.5 µM; in the test with K-562 leukemia, 8.26 µM; in the test on OVCAR-8 ovarian, 27.8 µM. Besides, the TGI with SW-620 colon was determined as 4.79 µM; with NCI-H226 lung it was 37.8 µM; in the test with OVCAR-4 ovarian, 27.3 µM; with T-47D breast it was 40.4 µM.
Take `CCOC(=O)c1cc2c(n1Cc1cc(OC)c(OC)c(OC)c1)-c1oncc1CCC2`: the GI50 is 255 nM with SK-MEL-28 melanoma; 111 nM in the test on SNB-75 CNS; 372 nM in the test with MDA-MB-231 breast; 657 nM in the test on SF-268 CNS; 97.3 nM in the test with K-562 leukemia; 0.332 µM in the test with OVCAR-8 ovarian. Moreover, the GI50 with SW-620 colon was 186 nM; in the test on NCI-H226 lung, 1.27 µM; in the test on OVCAR-4 ovarian it was 1360 nM; with T-47D breast it was 373 nM. Moreover, the TGI with SK-MEL-28 melanoma is above 54.5 µM; with SNB-75 CNS, above 61.7 µM; in the test on MDA-MB-231 breast it was 2.46 µM; in the test on SF-268 CNS, above 60.2 µM; with K-562 leukemia, above 100 µM; in the test with OVCAR-8 ovarian, above 49.7 µM. Besides, the TGI is above 100 µM in the test on SW-620 colon, above 53 µM in the test on NCI-H226 lung, above 67.4 µM in the test with OVCAR-4 ovarian and 53.4 µM with T-47D breast.
As to `Cc1cn2c(/C=C3/C(=O)Nc4ccc(O)cc43)c(C)nc2s1`, the GI50 in the test on SK-MEL-28 melanoma is 8440 nM; in the test on SNB-75 CNS it was 4610 nM; in the test on MDA-MB-231 breast it was 2820 nM; with SF-268 CNS it was 3420 nM; in the test on K-562 leukemia, 362 nM; in the test on OVCAR-8 ovarian, 10.4 µM. The GI50 with SW-620 colon was 2880 nM; with NCI-H226 lung, 4.91 µM; in the test on OVCAR-4 ovarian it was above 51400 nM; in the test with T-47D breast, 2640 nM. Moreover, the TGI in the test on SK-MEL-28 melanoma was above 100 µM; with SNB-75 CNS it was above 100 µM; in the test on MDA-MB-231 breast, above 62.4 µM; with SF-268 CNS, 56.8 µM; in the test with K-562 leukemia, above 61.8 µM; with OVCAR-8 ovarian it was above 51.7 µM. For the same compound, the TGI is above 100 µM with SW-620 colon, 39.8 µM in the test on NCI-H226 lung, above 100 µM in the test on OVCAR-4 ovarian and 25.5 µM in the test on T-47D breast.
Consider `C=C1CC[C@@H]2[C@](C)(COC(C)=O)[C@H](OC(C)=O)CC[C@@]2(C)[C@@H]1CC(Nc1ccc(S(=O)(=O)Nc2ccc(Cl)nn2)cc1)C1=CCOC1=O` (some centres undefined), for which the GI50 with SK-MEL-28 melanoma was 1680 nM; in the test with SNB-75 CNS it was 1440 nM; in the test on MDA-MB-231 breast, 1900 nM; with SF-268 CNS it was 1800 nM; in the test with K-562 leukemia it was 526 nM; in the test on SW-620 colon, 1070 nM. In addition, the GI50 in the test with OVCAR-4 ovarian is 1470 nM; in the test with T-47D breast it was 1510 nM. For the same compound, the TGI is 3.46 µM in the test with SK-MEL-28 melanoma; 5.9 µM in the test on SNB-75 CNS; 3.96 µM in the test with MDA-MB-231 breast; 3.67 µM with SF-268 CNS; 5.19 µM in the test on K-562 leukemia; 2.8 µM with SW-620 colon. Besides, the TGI in the test on OVCAR-4 ovarian turned out to be 3.17 µM; in the test with T-47D breast, 4.25 µM.

The record behind these values is PubChem BioAssay (NCI).
